# According to patent US6235284A, “Synthetic polypeptides belonging to the hepatitis C virus (HCV) and which can be used especially for detecting the latter” (Bio Merieux, priority 1992, dated 2001):
# Tested on: anti-HCV antibodies (HCV-positive sera)
# Experiment: ELISA detection of anti-HCV antibodies in HCV-positive sera with adsorbed peptides
# Type: binding, human
# Protocol: The reactivity of these three peptides towards the sera of individuals infected with the hepatitis C virus, termed (HCV) positive, was evaluated in an ELISA test according to the procedure described below.
# Detection of anti-HCV Antibodies by ELISA
# The wells of a microtiter plate of "NUNC MAXISORB™" trademark are saturated with 100 μl of a solution containing the peptide or a mixture of peptides (10 μg/ml) for 2 hours at 37° C. The plate is then emptied, then washed with a wash buffer containing 0.05% TWEEN™ 20(polysorbate 20). The wells are saturated with 100 μl of wash buffer supplemented with 10% goat serum (v/v), then incubated for 30 minutes at 37° C., then washed again as above. The sera to be analyzed are diluted to the appropriate dilution with saturation buffer. The incubation of the sera is 1 hour at 37° C. The wells are again washed. The solution of conjugate (goat IgG to human IgG labelled with peroxidase) at a dilution of 1/1000 in the saturation buffer is then added and the incubation lasts for 90 minutes at 37° C. After washing, the solution of orthophenylenediamine substrate is added. After 10 minutes, the reaction is stopped with 50 μl of H2 SO4 and the optical density is read at 492 nm. It should be noted that all the tests were carried out in duplicate.
# For that, the different peptides are adsorbed on the microplates at a concentration of 10 μg/ml and the sera are used at 1/100 dilution.
# The values obtained, which are collated in Table 1 below, correspond to the optical density (OD) multiplied by 10^3, at 492 nm.
# For each serum the experiment was carried out in duplicate. The **** are values outside the upper scale.
# The different peptides are absorbed onto microplates at a concentration of 10 μg/ml and the sera are used at the dilution stated.
# The values obtained, which are collated in Table 2 below, correspond to the optical density at 492 nm. All the experiments were carried out in duplicate.
# Each serum was, in a first instance, tested at the dilution 1/100.
# The values given correspond to the optical density read at 492 nm multiplied by the factor 10^3.
Substance,"optical density at 492 nm (Table 4, serum A 8, 1/1000)","optical density at 492 nm (Table 4, serum A 8, 1/10,000)","optical density at 492 nm (Table 4, serum A 9, 1/1000)","optical density at 492 nm (Table 4, serum A 9, 1/10,000)","optical density at 492 nm (Table 4, serum A 10, 1/1000)","optical density at 492 nm (Table 4, serum A 10, 1/10,000)","optical density at 492 nm (Table 4, serum A 11, 1/100)","optical density at 492 nm (Table 4, serum A 11, 1/1000)","optical density at 492 nm (Table 4, serum A 11, 1/10,000)","optical density at 492 nm (Table 4, serum A 12, 1/10,000)","optical density at 492 nm (Table 4, serum P 1, 1/100)","optical density at 492 nm (Table 4, serum P 2, 1/100)","optical density at 492 nm (Table 4, serum P 3, 1/100)","optical density at 492 nm (Table 4, serum P 4, 1/1000)","optical density at 492 nm (Table 4, serum P 4, 1/10,000)","optical density at 492 nm (Table 4, serum P 5, 1/10,000)","optical density at 492 nm (Table 4, serum P 7, 1/10,000)","optical density at 492 nm (Table 4, serum P 8, 1/10,000)","optical density at 492 nm (Table 4, serum P 10, 1/100)","optical density at 492 nm (Table 4, serum P 14, 1/10,000)",further results
P37G: peptide corresponding to the amino acid sequence 7 to 45 of the CORE protein (PQRKTKRNTNRRPQDVKFPGGGQIVGGVYLLPRRGPRLG),,,,,,,,,,,,,,,,,,,,,"optical density at 492 nm (Table 5, serum A8, 1/10,000): 525 OD × 10^3; optical density at 492 nm (Table 5, serum A 9, 1/1000): 2059 OD × 10^3; optical density at 492 nm (Table 5, serum A 9, 1/10,000): 275 OD × 10^3; optical density at 492 nm (Table 5, serum A10, 1/10,000): 1215 OD × 10^3; optical density at 492 nm (Table 5, serum A11, 1/10,000): 321 OD × 10^3; optical density at 492 nm (Table 5, serum A12, 1/10,000): 823 OD × 10^3; optical density at 492 nm (Table 5, serum A13, 1/10,000): 1061 OD × 10^3; optical density at 492 nm (Table 5, serum A14, 1/1000): 539 OD × 10^3; optical density at 492 nm (Table 5, serum A14, 1/10,000): 65 OD × 10^3; optical density at 492 nm (Table 5, serum A15, 1/10,000): 905 OD × 10^3; optical density at 492 nm (Table 5, serum A16, 1/10,000): 2003 OD × 10^3; optical density at 492 nm (Table 5, serum A19, 1/10,000): 446 OD × 10^3; optical density at 492 nm (Table 5, serum A20, 1/10,000): 2338 OD × 10^3; optical density at 492 nm (Table 5, serum A21, 1/1000): 652 OD × 10^3; optical density at 492 nm (Table 5, serum A21, 1/10,000): 90 OD × 10^3; optical density at 492 nm (Table 5, serum A22, 1/1000): 702 OD × 10^3; optical density at 492 nm (Table 5, serum A22, 1/10,000): 102 OD × 10^3; optical density at 492 nm (Table 5, serum A23, 1/10,000): 557 OD × 10^3; reactivity towards HCV-positive sera (in words): little or no difference is observed in reactivity"
K22Y: peptide corresponding to the amino acid sequence 12 to 35 of the CORE protein (KRNTNRRPQDVKFPGGGQIVGGVY),431 OD × 10^3,56 OD × 10^3,282 OD × 10^3,43 OD × 10^3,207 OD × 10^3,26 OD × 10^3,1878 OD × 10^3,212 OD × 10^3,31 OD × 10^3,62 OD × 10^3,435 OD × 10^3,666 OD × 10^3,1031 OD × 10^3,1959 OD × 10^3,300 OD × 10^3,394 OD × 10^3,1487 OD × 10^3,335 OD × 10^3,66 OD × 10^3,398 OD × 10^3,"optical density at 492 nm (Table 4, serum A 9, 1/100): 2152 OD × 10^3; optical density at 492 nm (Table 4, serum A 10, 1/100): 2114 OD × 10^3; optical density at 492 nm (Table 4, serum A 12, 1/1000): 646 OD × 10^3; optical density at 492 nm (Table 4, serum B 3, 1/100): 2033 OD × 10^3; optical density at 492 nm (Table 4, serum P 8, 1/1000): 2257 OD × 10^3; optical density at 492 nm (Table 4, serum P 16, 1/1000): 610 OD × 10^3; optical density at 492 nm (Table 4, serum P 16, 1/10,000): 75 OD × 10^3; optical density at 492 nm (Table 4, serum P 17, 1/100): 1930 OD × 10^3; optical density at 492 nm (Table 4, serum P 23, 1/100): 125 OD × 10^3; optical density at 492 nm (Table 4, serum P 24, 1/100): 735 OD × 10^3; optical density at 492 nm (Table 4, serum P 29, 1/100): 310 OD × 10^3; optical density at 492 nm (Table 4, serum P 30, 1/100): 1805 OD × 10^3"
S32Y: peptide corresponding to the amino acid sequence 2 to 35 of the CORE protein (STNPKPQRKTKRNTNRRPQDVKFPGGGQIVGGVY),1372 OD × 10^3,173 OD × 10^3,1941 OD × 10^3,297 OD × 10^3,373 OD × 10^3,33 OD × 10^3,2240 OD × 10^3,228 OD × 10^3,36 OD × 10^3,588 OD × 10^3,703 OD × 10^3,1177 OD × 10^3,1576 OD × 10^3,2165 OD × 10^3,369 OD × 10^3,1242 OD × 10^3,1932 OD × 10^3,1068 OD × 10^3,78 OD × 10^3,601 OD × 10^3,"optical density at 492 nm (Table 4, serum P 16, 1/1000): 983 OD × 10^3; optical density at 492 nm (Table 4, serum P 16, 1/10,000): 124 OD × 10^3; optical density at 492 nm (Table 4, serum P 23, 1/100): 157 OD × 10^3; optical density at 492 nm (Table 4, serum P 24, 1/100): 1214 OD × 10^3; optical density at 492 nm (Table 4, serum P 29, 1/100): 400 OD × 10^3"
P27Y: peptide corresponding to the amino acid sequence 7 to 35 of the CORE protein (PQRKTKRNTNRRPQDVKFPGGGQIVGGVY),1198 OD × 10^3,118 OD × 10^3,1388 OD × 10^3,182 OD × 10^3,334 OD × 10^3,31 OD × 10^3,1937 OD × 10^3,226 OD × 10^3,33 OD × 10^3,365 OD × 10^3,620 OD × 10^3,891 OD × 10^3,1470 OD × 10^3,2111 OD × 10^3,324 OD × 10^3,856 OD × 10^3,1667 OD × 10^3,654 OD × 10^3,60 OD × 10^3,566 OD × 10^3,"optical density at 492 nm (Table 4, serum A 10, 1/100): 2308 OD × 10^3; optical density at 492 nm (Table 4, serum P 16, 1/1000): 913 OD × 10^3; optical density at 492 nm (Table 4, serum P 16, 1/10,000): 104 OD × 10^3; optical density at 492 nm (Table 4, serum P 17, 1/100): 2300 OD × 10^3; optical density at 492 nm (Table 4, serum P 23, 1/100): 138 OD × 10^3; optical density at 492 nm (Table 4, serum P 24, 1/100): 1063 OD × 10^3; optical density at 492 nm (Table 4, serum P 29, 1/100): 347 OD × 10^3; optical density at 492 nm (Table 4, serum P 30, 1/100): 2274 OD × 10^3"
